In publication PMC8909805, “Anticancer Activity of (S)-5-Chloro-3-((3,5-dimethylphenyl)sulfonyl)-N-(1-oxo-1-((pyridin-4-ylmethyl)amino)propan-2-yl)-1H-indole-2-carboxamide (RS4690), a New Dishevelled 1 Inhibitor” (Cancers, 2022):

Molecular target: T1, DVL1 binding to FZD4 (Homo sapiens, UniProt O14640)
T1 construct: host or cells: HEK293
T1 sequence (O14640 1-695): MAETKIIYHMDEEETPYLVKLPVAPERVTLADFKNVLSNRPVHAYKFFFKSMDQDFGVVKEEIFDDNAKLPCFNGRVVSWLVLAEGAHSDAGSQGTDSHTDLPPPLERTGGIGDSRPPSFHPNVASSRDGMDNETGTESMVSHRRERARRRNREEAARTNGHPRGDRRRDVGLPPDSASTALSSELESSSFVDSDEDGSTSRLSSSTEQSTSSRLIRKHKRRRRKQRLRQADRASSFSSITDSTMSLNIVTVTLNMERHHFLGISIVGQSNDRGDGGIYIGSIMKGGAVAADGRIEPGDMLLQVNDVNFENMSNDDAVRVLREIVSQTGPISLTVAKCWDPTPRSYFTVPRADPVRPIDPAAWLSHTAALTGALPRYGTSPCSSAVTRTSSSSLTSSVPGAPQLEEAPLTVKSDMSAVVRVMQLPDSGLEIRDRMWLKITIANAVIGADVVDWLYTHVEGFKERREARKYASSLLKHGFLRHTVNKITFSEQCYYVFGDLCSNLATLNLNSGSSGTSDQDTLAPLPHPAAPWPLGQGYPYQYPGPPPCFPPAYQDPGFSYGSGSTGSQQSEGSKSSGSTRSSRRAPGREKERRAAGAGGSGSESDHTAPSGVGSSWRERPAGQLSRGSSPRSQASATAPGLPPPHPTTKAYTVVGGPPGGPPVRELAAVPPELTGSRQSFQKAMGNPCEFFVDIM
Assay: Inhibition of DVL1 (DVL-GFP) recruitment by FZD4 at the plasma membrane of HEK293 cells
Format: cell-based
Details: HEK293 cells co-transfected with HA-FZD4 and GFP-DVL-1; 24 h treatment; read-out: EC50 ± SD DVL1 Binding Inhibition
Description: HEK293 cells were seeded in 96-well tissue culture plates at a density of 5 × 10 ^3/well. After 16–24 h seeding, cells were co-transfected with HA-FZD4-wt (0.04 µg/well) and GFP-tagged DVL-1 (0.04 µg/well) using PEI (0.25 µL/well) in a final volume of 100 µL/well. After 24 h of transfection, the medium was replaced and supplemented with the indicated compounds diluted in culture medium. After 24 h of treatment, cells were fixed in 3.7% formaldehyde freshly diluted in PBS for 30 min at RT, quenched with 0.1 M glycine/PBS for 30 min at RT, and washed with PBS. Samples were observed under a Leica confocal fluorescent microscope. Inhibition of DVL recruitment was measured by counting the percentage of cells losing GFP-DVL-1 localization on the PM. Experiments were performed in triplicate, and the standard deviations are indicated.
The crucial role played by PDZ domains in the spreading of cellular signals and their aberrant activations in many human diseases makes the PDZ domains very attractive targets for drug discovery. […] To identify new DVL1 inhibitors, we followed a virtual screening approach by fixing as the main filter a pharmacophoric model. We speculated that compound 2, the recently reported inhibitor of NHERF1 PDZ1 domain [26], may be able also to bind the DVL PDZ domain. The activity of compound 2 was assayed in HEK293 cells transiently expressing both HA-tagged-FZD4 (HA-FZD4) and the chimeric construct DVL-GFP. In the absence of HA-FZD4, DVL-GFP is localized in punctate intracellular structures known as signalosomes. In the presence of FZD-4 expression, DVL-GFP is recruited on the PM of the cell showing a drastic change in localization. As previously reported, drugs acting as inhibitors of FZD4/DVL binding reduce the amount of DVL-GFP recruited on the PM. […] Thus, we used the information gained from the binding mode of compound 2 to design a pharmacophore model that would lead to the identification of new DVL1 PDZ binders. At the same time, to better distinguish between the inhibitory activities of DVL1 and NHERF1, we added a new query to the pharmacophore model. Actually, comparing the PDZ structures of the studied proteins, we identified a significant difference. The upper part of the carboxylic binding loop was delimited by Tyr24, Ile79 and Val86 for NHERF1, while we observed Leu12, Val75 and Ile81, respectively, for DVL1. […] This peculiar feature of the DVL1 PDZ was included in our pharmacophore model by adding a hydrophobic query to obtain the required selectivity (Figure S1, Supplementary Materials). […] Thus, for each molecule, we obtained 10 conformations, and all of the proposed binding poses (7000 molecules per 10 conformations) were scored by the fitting to the pharmacophore model. […]

EC50 [nM] | Structure (SMILES)
29500 ± 900 | Cc1cc(C)cc(S(=O)(=O)c2c(C(=O)N[C@H](C)C(=O)NCc3ccncc3)[nH]c3ccc(Cl)cc23)c1 [(R)-1]
490 ± 110 | Cc1cc(C)cc(S(=O)(=O)c2c(C(=O)N[C@@H](C)C(=O)NCc3ccncc3)[nH]c3ccc(Cl)cc23)c1 [(S)-1, (S)-5-Chloro-3-((3,5-dimethylphenyl)sulfonyl)-N-(1-oxo-1-((pyridin-4-ylmethyl)amino)propan-2-yl)-1H-indole-2-carboxamide]
740 ± 80 | Cc1cc(C)cc(S(=O)(=O)c2c(C(=O)NC(C)C(=O)NCc3ccncc3)[nH]c3ccc(Cl)cc23)c1 (stereo not drawn) [Compound 1]
